Assay results taken from patent US4173636A, “Decahydroquinolines, pharmaceutical compositions and methods of use” (Labaz, priority 1975, dated 1979).
Read-outs that look alike come from different tables or passages of the source.

What was measured:
contorsions [1] = assay: KOSTER acetic acid contorsion test, intragastric; format: in vivo, mice; conditions: Mus musculus, po
Procedure: The first test was carried out according to the technique of KOSTER (Fed. Proc. 18, 412, 1959) on batches of 20 mice which had been deprived of food for 18 hours.
Each batch of animals with the exception of the controls was given an intragastric dose of the compound to be studied so that each batch received a higher dose than the preceding batch. Thirty minutes after administration, the animals of each batch, as well as the control animals, were given intraperitoneally 0.2 ml. of a 0.25% acetic acid solution per 10 g. of body-weight.
During the 20 minutes following the injection of acetic acid, the number of characteristic contorsions made by the animals was noted. The absence of contorsions corresponds to animals under the influence of analgesia.
Note was taken of the AD50, i.e. the dose of the compound under study which provoked analgesia in half of the animals treated.

pain-threshold voltage = assay: CHARLIER electric stimulation pain-threshold test, intragastric; format: in vivo, rats; conditions: Rattus norvegicus, po
Procedure: The fourth test was carried out according to the technique of CHARLIER and al (Arch. int. Pharmacodyn. 134, 306, 1961) on batches of 10 rats.
The animals were connected to a source of electric current by means of two electrodes of which one was attached to the tail and the other maintained in the rectum.
The pain-threshold voltage was then determined for each rat by passing a current of 2 volts and increasing the current by one volt at a time until the animal gave a squeak. This control test was repeated three times at intervals of 15 minutes. The compound under study was then administered by intragastric route and, starting from the threshold-voltage already determined note was taken, every 10 minutes for 2 hours, of the voltage which caused the animals to squeak.
The results were noted according to the WINTER and FLATAKER scale (J. Pharmacol. Exp. Therap. 98, 305, 1950) and the AD's 50 obtained are listed in the Table given hereunder: […]

contorsions [2] = assay: SIEGMUND phenylbenzoquinone contorsion test; format: in vivo, male mice; conditions: Mus musculus
Procedure: The third test was carried out according to the technique of SIEGMUND and al (Proc. Soc. Exp. Biol. Med. 95, 729, 1957) on batches of 10 male mice.
A typical syndrome was produced in the animals by intraperitoneal injection of 0.25 ml. of a 0.02% aqueous solution of 2-phenyl-1,4-benzoquinone (phenylbenzoquinone).
The syndrome in question is characterized by intermittent contractions of the abdomen, twisting and turning of the trunk and extension of the hind legs. Note was taken of the number of movements occurring over a period of 30 minutes starting 15 minutes after the injection of phenylbenzoquinone.
The compound to be tested was injected 30 minutes before the phenylbenzoquinone in such a way that each batch received a higher dose than the preceding batch, a control batch receiving only the phenylbenzoquinone.
Note was taken of the AD50, i.e. the dose of substance which reduced at least by half the number of contorsions in half of the animals, as compared to the number of contorsions observed in the control group.

[3] = test system: squeak at threshold-voltage (pain); assay: NILSEN electric tail stimulation test, intragastric; format: in vivo, mice; conditions: Mus musculus, po
Procedure: The second test was carried out according to the technique of NILSEN (Acta Pharmacol. et toxicol. 18, 10, 1961) on batches of 10 mice.
The animals were connected to a source of electric current by means of two electrodes inserted into the tail.
The threshold-voltage was then determined, i.e. the minimum voltage which, in the course of two successive shocks, caused the animals to squeak at least one time out of two. After this, the compound to be studied was administered by intragastric route.
Note was taken of the dose of compound (AD50) which suppressed the squeak in half of the treated animals.

contorsions [4] = assay: animal or person; format: in vivo, mice; conditions: Mus musculus, sc, read-out: AD50
[5] = test system: squeak at threshold-voltage (pain); assay: animal or person; format: in vivo, mice; conditions: Mus musculus, sc, read-out: AD50
[6] = test system: reaction time (flick-tail); assay: animal or person; format: in vivo, male rats; conditions: Rattus norvegicus, sc, read-out: AD50

CC(=O)Oc1ccccc1C(=O)O [Acetylsalicyclic acid, Acetylsalicylic acid]
ED50 (contorsions [1]; read-out: AD50): 150 mg/kg | ED50 (pain-threshold voltage; 2 h, read-out: AD50): 1300 mg/kg | ED50 (contorsions [2]; read-out: AD50): 50 mg/kg | ED50 ([3]; read-out: AD50): 1100 mg/kg

Cc1cc(=O)n(-c2ccccc2)n1C [Antipyrine]
ED50 (contorsions [1]; intragastric, mice, 30 min before 0.25% acetic acid i.p., analgesia in half of the animals, read-out: AD50 (the source's name)): 120 mg/kg | ED50 (pain-threshold voltage; intragastric, rats, WINTER and FLATAKER scale, 2 hours, read-out: AD50 (the source's name)): 500 mg/kg | ED50 (contorsions [2]; injected 30 minutes before phenylbenzoquinone, male mice, contorsions reduced at least by half in half of the animals, read-out: AD50 (the source's name)): 100 mg/kg | ED50 ([3]; intragastric, mice, suppressed the squeak in half of the treated animals, read-out: AD50 (the source's name)): 400 mg/kg

O=C(OCC(O)CO)c1ccccc1Nc1ccnc2cc(Cl)ccc12 (stereo not shown) [Glafenine]
ED50 (contorsions [1]; read-out: AD50): 110 mg/kg | ED50 (contorsions [2]; read-out: AD50): 325 mg/kg

CC(C)=CCN1CCC2(C)c3cc(O)ccc3CC1C2C (stereo not shown) [Pentazocine]
ED50 (contorsions [1]; read-out: AD50): 45 mg/kg | ED50 (contorsions [4]): 5 mg/kg | ED50 [5]: 12 mg/kg | ED50 [6]: 3 mg/kg

CCOC(=O)C1(c2ccccc2)CCN(C)CC1 [Pethidine]
ED50 (contorsions [4]): 7 mg/kg | ED50 [5]: 7 mg/kg | ED50 (pain-threshold voltage; 2 h, read-out: AD50): 50 mg/kg | ED50 [6]: 5.5 mg/kg

CCOc1ccc(NC(C)=O)cc1 [Phenacetine]
ED50 (contorsions [1]; read-out: AD50): 160 mg/kg | ED50 (pain-threshold voltage; 2 h, read-out: AD50): 750 mg/kg | ED50 (contorsions [2]; read-out: AD50): 80 mg/kg | ED50 ([3]; read-out: AD50): 450 mg/kg
